Assay results from patent US10131652B2, “Pyrimidinyloxy benzene derivatives as herbicides” (E. I. DU PONT DE NEMOURS AND COMPANY, priority 2014, dated 2018).
Like-named read-outs stand apart in the source and are kept apart here.

Assays:
Format in all cases: in vivo
[1] = tested on: barnyardgrass (Echinochloa crus-galli); assay: Test B pre-/postemergence plant response; conditions: Echinochloa crus-galli, 240 h, read-out: Plant response rating, Barnyardgrass; for pest or weed control at 125 g/ha: 125 g ai/ha; for pest or weed control at 500 g/ha: 500 g ai/ha
Summary of the method: (§1)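 Visual injury rating, 0 (no effect) to 100 (complete control), vs untreated controls after ~10 d greenhouse. Pre: directed soil spray after planting in loam/sand. Post: plants 2–10 cm, 1–2 leaf stage. Compound in non-phytotoxic solvent plus surfactant.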

[2] = tested on: corn (Zea mays); assay: Test B pre-/postemergence plant response; conditions: Zea mays, 240 h; for Corn plant response rating (crop injury, 0 = no effect, 100 = complete kill) at 125 g/ha: 125 g ai/ha; for Corn plant response rating (crop injury, 0 = no effect, 100 = complete kill) at 500 g/ha: 500 g ai/ha
Summary of the method: as §1

[3] = tested on: giant foxtail (Setaria faberii); assay: Test B pre-/postemergence plant response; conditions: Setaria faberi, 240 h, read-out: Plant response rating, Foxtail, Giant; for pest or weed control at 125 g/ha: 125 g ai/ha; for pest or weed control at 500 g/ha: 500 g ai/ha
Summary of the method: as §1

[4] = tested on: pigweed (Amaranthus retroflexus); assay: Test B pre-/postemergence plant response; conditions: Amaranthus retroflexus, 240 h, read-out: Plant response rating, Pigweed; for pest or weed control at 125 g/ha: 125 g ai/ha; for pest or weed control at 500 g/ha: 500 g ai/ha
Summary of the method: as §1

[5] = tested on: wheat (Triticum aestivum); assay: Test B pre-/postemergence plant response; conditions: Triticum aestivum, 240 h, read-out: Plant response rating, Wheat; for plant injury at 125 g/ha: 125 g ai/ha; for plant injury at 500 g/ha: 500 g ai/ha
Summary of the method: as §1

[6] = tested on: barnyardgrass (Echinochloa crus-galli); assay: Test C flooded paddy test plant response; conditions: Echinochloa crus-galli; Flood, 250 g ai/ha; scale of 0 to 100 where 0 is no effect and 100 is complete control; 13 to 15 days; read-out: Barnyardgrass plant response rating
Summary of the method: (§2)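 Plants grown to 2-leaf stage, flooded 3 cm above soil; compounds applied directly into paddy water, depth kept throughout. Visual rating versus controls after 13 to 15 days in greenhouse, 0 (no effect) to 100 (complete control).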

[7] = tested on: ducksalad (Heteranthera limosa); assay: Test C flooded paddy test plant response; conditions: Heteranthera limosa; Flood, 250 g ai/ha; scale of 0 to 100 where 0 is no effect and 100 is complete control; 13 to 15 days; read-out: Ducksalad plant response rating
Summary of the method: as §2

[8] = tested on: rice (Oryza sativa); assay: Test C flooded paddy test plant response; conditions: Oryza sativa; Flood, 250 g ai/ha; scale of 0 to 100 where 0 is no effect and 100 is complete control; 13 to 15 days; read-out: Rice plant response rating
Summary of the method: as §2

[9] = tested on: small-flower umbrella sedge (Cyperus difformis); assay: Test C flooded paddy test plant response; conditions: Cyperus difformis; Flood, 250 g ai/ha; scale of 0 to 100 where 0 is no effect and 100 is complete control; 13 to 15 days; read-out: Sedge, Umbrella plant response rating
Summary of the method: as §2

[10] = tested on: blackgrass (Alopecurus myosuroides); assay: Test D pre-/postemergence plant response; conditions: Alopecurus myosuroides, pre-emergence, Preemergence, scale 0 to 100 (0 no effect, 100 complete control), read-out: Plant response rating, Blackgrass
Excerpt: (§3) Seeds of plant species selected from blackgrass (Alopecurus myosuroides), Italian ryegrass (Lolium multiflorum), winter wheat (Triticum aestivum), galium (catchweed bedstraw, Galium aparine), corn (Zea mays), large (Lg) crabgrass (Digitaria sanguinalis), giant foxtail (Setaria faberii), johnsongrass (Sorghum halepense), lambsquarters (Chenopodium album), morningglory (Ipomoea coccinea), yellow nutsedge (Cyperus esculentus), pigweed (Amaranthus retroflexus), ragweed (common ragweed, Ambrosia elatior), soybean (Glycine max), bamyardgrass (Echinochloa crus-galli), oilseed rape (Brassica napus), waterhemp (common waterhemp, Amaranthus rudis), and velvetleaf (Abutilon theophrasti) were planted into a blend of loam soil and sand and treated preemergence with test chemicals formulated in a non-phytotoxic solvent mixture which included a surfactant. At the same time, plants selected from these crop and weed species and also kochia (Kochia scoparia), wild oat (Avena fatua), and chickweed (common chickweed, Stellaria media) were planted in pots containing Redi-Earth® planting medium (Scotts Company, 14111 Scottslawn Road, Marysville, Ohio 43041) comprising spaghnum peat moss, vermiculite, wetting agent and starter nutrients and treated with postemergence applications of test chemicals formulated in the same manner. Plants ranged in height from 2 to 18 cm (1- to 4-leaf stage) for postemergence treatments. Treated plants and controls were maintained in a greenhouse for 13 to 15 days, after which time all species were compared to controls and visually evaluated. Plant response ratings, summarized in Table D, are based on a scale of 0 to 100 where 0 is no effect and 100 is complete control. A dash (-) response means no test result.

[11] = tested on: galium (catchweed bedstraw, Galium aparine); assay: Test D pre-/postemergence plant response; conditions: Galium, pre-emergence, Preemergence, scale 0 to 100 (0 no effect, 100 complete control), read-out: Plant response rating, Galium
Excerpt: as §3

[12] = tested on: johnsongrass (Sorghum halepense); assay: Test D pre-/postemergence plant response; conditions: Sorghum halepense, pre-emergence, Preemergence, scale 0 to 100 (0 no effect, 100 complete control), read-out: Plant response rating, Johnsongrass
Excerpt: as §3

[13] = tested on: lambsquarters (Chenopodium album); assay: Test D pre-/postemergence plant response; conditions: Chenopodium album, pre-emergence, Preemergence, scale 0 to 100 (0 no effect, 100 complete control), read-out: Plant response rating, Lambsquarters
Excerpt: as §3

[14] = tested on: large (Lg) crabgrass (Digitaria sanguinalis); assay: Test D pre-/postemergence plant response; conditions: Digitaria sanguinalis, pre-emergence, Preemergence, scale 0 to 100 (0 no effect, 100 complete control), read-out: Plant response rating, Crabgrass, Large
Excerpt: as §3

[15] = tested on: velvetleaf (Abutilon theophrasti); assay: Test D pre-/postemergence plant response; conditions: Abutilon theophrasti, pre-emergence, Preemergence, scale 0 to 100 (0 no effect, 100 complete control), read-out: Plant response rating, Velvetleaf
Excerpt: as §3

[16] = tested on: winter wheat (Triticum aestivum); assay: Test D pre-/postemergence plant response; conditions: Triticum aestivum, pre-emergence, Preemergence, scale 0 to 100 (0 no effect, 100 complete control), read-out: Plant response rating, Wheat
Excerpt: as §3

[17] = post-emergence, postemergence, 0 to 100 scale, 0 no effect, 100 complete control
[18] = post-emergence, Postemergence, 0 to 100 scale (0 no effect, 100 complete control)
[19] = pre-emergence, Preemergence, 0 to 100 scale where 0 is no effect and 100 is complete control

`FCc1cc(-c2ccccc2Oc2ncc(Cl)cn2)no1` [Compound 32, 5-chloro-2-[2-[5-(fluoromethyl)-3-isoxazolyl]phenoxy]pyrimidine] was tested, and the pest or weed control at 125 g/ha [1, 17] was 70%, the pest or weed control at 500 g/ha [1, 18] was 90% and the pest or weed control at 125 g/ha [1, 19] was 90%. It also gave a pest or weed control at 500 g/ha [1, 19] of 90%, a Corn plant response rating (crop injury, 0 = no effect, 100 = complete kill) at 125 g/ha [2, 17] of 10% and a Corn plant response rating (crop injury, 0 = no effect, 100 = complete kill) at 500 g/ha [2, 18] of 50%. For the same molecule, the Corn plant response rating (crop injury, 0 = no effect, 100 = complete kill) at 125 g/ha [2, 19] was 0%, the Corn plant response rating (crop injury, 0 = no effect, 100 = complete kill) at 500 g/ha [2, 19] was 0% and the pest or weed control at 125 g/ha [3, 17] was 70%. It also gave a pest or weed control at 500 g/ha [3, 18] of 90%, a pest or weed control at 125 g/ha [3, 19] of 90% and a pest or weed control at 500 g/ha [3, 19] of 100%. The pest or weed control at 125 g/ha [4, 17] was 100%, the pest or weed control at 500 g/ha [4, 18] was 100% and the pest or weed control at 125 g/ha [4, 19] was 100%. The pest or weed control at 500 g/ha [4, 19] was 100%, the plant injury at 125 g/ha [5, 17] was 30% and the plant injury at 500 g/ha [5, 18] was 60%. For the same molecule, the plant injury at 125 g/ha [5, 19] was 0%, the plant injury at 500 g/ha [5, 19] was 10% and the pest or weed control at 250 g/ha [6] was 0%. It also gave a pest or weed control at 250 g/ha [7] of 90%, a plant injury at 250 g/ha [8] of 20% and a pest or weed control at 250 g/ha [9] of 85%. It also gave a pest or weed control at 8 g/ha ([10]; 8 g ai/ha) of 0%, a pest or weed control at 16 g/ha ([10]; 16 g ai/ha) of 0% and a pest or weed control at 31 g/ha ([10]; 31 g ai/ha) of 30%. The pest or weed control at 62 g/ha ([10]; 62 g ai/ha) was 35%, the pest or weed control at 8 g/ha ([11]; 8 g ai/ha) was 0% and the pest or weed control at 16 g/ha ([11]; 16 g ai/ha) was 25%. The pest or weed control at 31 g/ha ([11]; 31 g ai/ha) was 65%, the pest or weed control at 62 g/ha ([11]; 62 g ai/ha) was 75% and the pest or weed control at 8 g/ha ([12]; 8 g ai/ha) was 0%. It also gave a pest or weed control at 16 g/ha ([12]; 16 g ai/ha) of 45%, a pest or weed control at 31 g/ha ([12]; 31 g ai/ha) of 75% and a pest or weed control at 62 g/ha ([12]; 62 g ai/ha) of 85%. It also gave a pest or weed control at 8 g/ha ([13]; 8 g ai/ha) of 95%, a pest or weed control at 16 g/ha ([13]; 16 g ai/ha) of 95% and a pest or weed control at 31 g/ha ([13]; 31 g ai/ha) of 98%. For the same molecule, the pest or weed control at 62 g/ha ([13]; 62 g ai/ha) was 100%, the pest or weed control at 8 g/ha ([14]; 8 g ai/ha) was 100% and the pest or weed control at 16 g/ha ([14]; 16 g ai/ha) was 90%. The pest or weed control at 31 g/ha ([14]; 31 g ai/ha) was 98%, the pest or weed control at 62 g/ha ([14]; 62 g ai/ha) was 100% and the pest or weed control at 8 g/ha ([15]; 8 g ai/ha) was 5%. For the same molecule, the pest or weed control at 16 g/ha ([15]; 16 g ai/ha) was 40%, the pest or weed control at 31 g/ha ([15]; 31 g ai/ha) was 55% and the pest or weed control at 62 g/ha ([15]; 62 g ai/ha) was 85%. The plant injury at 8 g/ha ([16]; 8 g ai/ha) was 0%, the plant injury at 16 g/ha ([16]; 16 g ai/ha) was 0% and the plant injury at 31 g/ha ([16]; 31 g ai/ha) was 0%. It also gave a plant injury at 62 g/ha ([16]; 62 g ai/ha) of 5%.
